Measured values taken from article PMC4311985, “Molecular Surveillance of Antiviral Drug Resistance of Influenza A/H3N2 Virus in Singapore, 2009-2013” (PLoS ONE, 2015).

Legend:
[1] = tested on: influenza A/H3N2 NA E119V+I222V; conditions: ref [3] of supplement (Nguyen 2012); cited from earlier work
[2] = tested on: influenza A/H3N2 NA Q226H; conditions: ref [2] of supplement (Monto 2006); cited from earlier work
[3] = tested on: influenza A/H3N2 NA R371K; conditions: ref [3] of supplement (Nguyen 2012); cited from earlier work
[4] = tested on: influenza A/H3N2 NA Q136K; conditions: ref [3] of supplement (Nguyen 2012); cited from earlier work
influenza A/H3N2 NA E41G = conditions: ref [2] of supplement (Monto 2006); cited from earlier work
[5] = tested on: influenza A/H3N2 NA I222T; conditions: cited from earlier work
[6] = tested on: influenza A/H3N2 NA N294S; conditions: ref [3] of supplement (Nguyen 2012); cited from earlier work
[7] = tested on: influenza A/H3N2 NA E119V+I222L; conditions: ref [3] of supplement (Nguyen 2012); cited from earlier work
[8] = tested on: influenza A/H3N2 NA D151V; conditions: ref [4] of supplement (Sheu 2008); cited from earlier work
[9] = tested on: influenza A/H3N2 NA D151E; conditions: ref [3] of supplement (Nguyen 2012); cited from earlier work
[10] = tested on: influenza A/H3N2 NA E119I; conditions: ref [3] of supplement (Nguyen 2012); cited from earlier work
[11] = tested on: influenza A/H3N2 NA R292K; conditions: ref [3] of supplement (Nguyen 2012); cited from earlier work
[12] = tested on: influenza A/H3N2 NA E119V; conditions: ref [3] of supplement (Nguyen 2012); cited from earlier work
[13] = tested on: influenza A/H3N2 NA R224K; conditions: ref [3] of supplement (Nguyen 2012); cited from earlier work
[14] = tested on: influenza A/H3N2 NA E276D; conditions: ref [3] of supplement (Nguyen 2012); cited from earlier work
[15] = tested on: influenza A/H3N2 NA D151A; conditions: ref [4] of supplement (Sheu 2008); cited from earlier work
[16] = tested on: influenza A/H3N2 NA E119D; conditions: ref [3] of supplement (Nguyen 2012); cited from earlier work
[17] = target: influenza A/H3N2 NA, D93G single mutation (Influenza A virus (H3N2), UniProt V9SU56, D93G); format: biochemical; conditions: read-out: mean drug concentration required to inhibit 50% NA activity
[18] = target: influenza A/H3N2 NA, D93G, Y155F, D251V mutations in combination (Influenza A virus (H3N2), UniProt V9SU56, D251V/D93G/Y155F); format: biochemical; conditions: read-out: mean drug concentration required to inhibit 50% NA activity
[19] = target: influenza A/H3N2 NA, D93G, D251N mutations in combination (Influenza A virus (H3N2), UniProt V9SU56, D251N/D93G); format: biochemical; conditions: read-out: mean drug concentration required to inhibit 50% NA activity

Structure (SMILES): CCOC(=O)C1=C[C@@H](OC(CC)CC)[C@H](NC(C)=O)[C@@H](N)C1 [Oseltamivir, oseltamivir]
- Drug susceptibility by NA inhibition assays (WHO class) [1]: R (>100-fold increase as resistant (“R”))
- Drug susceptibility by NA inhibition assays (WHO class) [2]: DS (10–100-fold increase as decreased susceptibility (“DS”))
- Drug susceptibility by NA inhibition assays (WHO class) [3]: DS (10–100-fold increase as decreased susceptibility (“DS”))
- Drug susceptibility by NA inhibition assays (WHO class) [4]: S (<10-fold increase as susceptible (“S”))
- Drug susceptibility by NA inhibition assays (WHO class) (influenza A/H3N2 NA E41G): DS (10–100-fold increase as decreased susceptibility (“DS”))
- increase in IC50 compared to that of the wild-type ([5]; I222T in influenza A/H3N2): 16 fold
- Drug susceptibility by NA inhibition assays (WHO class) ([5]; I222T, ref [5] of supplement (Pizzorno 2014)): DS (10–100-fold increase as decreased susceptibility (“DS”))
- Drug susceptibility by NA inhibition assays (WHO class) [6]: R (>100-fold increase as resistant (“R”))
- Drug susceptibility by NA inhibition assays (WHO class) [7]: R (>100-fold increase as resistant (“R”))
- Drug susceptibility by NA inhibition assays (WHO class) [8]: S (<10-fold increase as susceptible (“S”))
- Drug susceptibility by NA inhibition assays (WHO class) [9]: DS (10–100-fold increase as decreased susceptibility (“DS”))
- Drug susceptibility by NA inhibition assays (WHO class) [10]: R (>100-fold increase as resistant (“R”))
- Drug susceptibility by NA inhibition assays (WHO class) [11]: R (>100-fold increase as resistant (“R”))
- Drug susceptibility by NA inhibition assays (WHO class) [12]: DS/R
- Drug susceptibility by NA inhibition assays (WHO class) [13]: R (>100-fold increase as resistant (“R”))
- Drug susceptibility by NA inhibition assays (WHO class) [14]: DS (10–100-fold increase as decreased susceptibility (“DS”))
- Drug susceptibility by NA inhibition assays (WHO class) [15]: S (<10-fold increase as susceptible (“S”))
- Drug susceptibility by NA inhibition assays (WHO class) [16]: S (<10-fold increase as susceptible (“S”))

Structure (SMILES): CCC(CC)[C@H](NC(C)=O)[C@@H]1[C@H](O)[C@@H](C(=O)O)C[C@H]1N=C(N)N [Peramivir, peramivir]
- IC50 [17]: 0.2 ± 0.1 nM
- Drug susceptibility by NA inhibition assays (WHO class) [1]: S (<10-fold increase as susceptible (“S”))
- IC50 fold-change compared to wildtype [1]: 7 fold
- Drug susceptibility by NA inhibition assays (WHO class) [6]: S (<10-fold increase as susceptible (“S”))
- IC50 fold-change compared to wildtype [6]: 1 fold
- Drug susceptibility by NA inhibition assays (WHO class) [10]: S (<10-fold increase as susceptible (“S”))
- IC50 fold-change compared to wildtype [10]: 3 fold
- Drug susceptibility by NA inhibition assays (WHO class) [11]: DS/R
- IC50 fold-change compared to wildtype [11]: 14-719 fold
- IC50 [18]: 0.2 ± 0.1 nM
- Drug susceptibility by NA inhibition assays (WHO class) [12]: S (<10-fold increase as susceptible (“S”))
- IC50 fold-change compared to wildtype [12]: 1-3 fold
- IC50 [19]: 0.4 nM
- Drug susceptibility by NA inhibition assays (WHO class) [16]: S (<10-fold increase as susceptible (“S”))
- IC50 fold-change compared to wildtype [16]: 2 fold

Structure (SMILES): CC(=O)N[C@H]1[C@H]([C@H](O)[C@H](O)CO)OC(C(=O)O)=C[C@@H]1N=C(N)N [Zanamivir, zanamivir]
- Drug susceptibility by NA inhibition assays (WHO class) [1]: S (<10-fold increase as susceptible (“S”))
- Drug susceptibility by NA inhibition assays (WHO class) [2]: S (<10-fold increase as susceptible (“S”))
- Drug susceptibility by NA inhibition assays (WHO class) [3]: DS (10–100-fold increase as decreased susceptibility (“DS”))
- Drug susceptibility by NA inhibition assays (WHO class) [4]: DS (10–100-fold increase as decreased susceptibility (“DS”))
- Drug susceptibility by NA inhibition assays (WHO class) (influenza A/H3N2 NA E41G): S (<10-fold increase as susceptible (“S”))
- Drug susceptibility by NA inhibition assays (WHO class) [6]: S (<10-fold increase as susceptible (“S”))
- Drug susceptibility by NA inhibition assays (WHO class) [7]: S (<10-fold increase as susceptible (“S”))
- Drug susceptibility by NA inhibition assays (WHO class) [8]: DS (10–100-fold increase as decreased susceptibility (“DS”))
- Drug susceptibility by NA inhibition assays (WHO class) [9]: S (<10-fold increase as susceptible (“S”))
- Drug susceptibility by NA inhibition assays (WHO class) [10]: DS (10–100-fold increase as decreased susceptibility (“DS”))
- Drug susceptibility by NA inhibition assays (WHO class) [11]: S/DS/R
- Drug susceptibility by NA inhibition assays (WHO class) [12]: S (<10-fold increase as susceptible (“S”))
- Drug susceptibility by NA inhibition assays (WHO class) [13]: DS (10–100-fold increase as decreased susceptibility (“DS”))
- Drug susceptibility by NA inhibition assays (WHO class) [14]: R (>100-fold increase as resistant (“R”))
- Drug susceptibility by NA inhibition assays (WHO class) [15]: DS (10–100-fold increase as decreased susceptibility (“DS”))
- Drug susceptibility by NA inhibition assays (WHO class) [16]: DS (10–100-fold increase as decreased susceptibility (“DS”))
